# Laboratory results as given in PubChem BioAssay AID1996.
# Settings: buffer; pH 7.4; 200.0 µM
row,solubility kinetic [µg/mL],SMILES
1,49.3,CCN1CCN(c2nc(N(C)c3ccccc3)nc(N)c2[N+](=O)[O-])CC1
2,> 38.1,O=C(O)/C=C/C(=O)NCCc1cccc(Cl)c1
3,7.1,Cc1cc2c(cc1C)CN(c1ccccc1)C2
4,24.7,Nc1ccccc1C(=O)Nc1cccc2ccccc12
5,> 30.8,NC1=NC(=O)/C(=C\c2cccnc2)S1
6,> 41.9,Cc1ccc(-c2c(C(=O)O)c3ccccc3[nH]c2=O)cc1
7,> 48.4,Cc1ccc(NC(=O)C2CC(=O)N(C(C)c3ccccc3)C2)cc1 (centres undefined)
8,> 34.2,Cc1nc(N)nc(N/N=C/c2ccccc2)n1
9,0.8,O=C(Nc1cccnc1)c1cc2c(s1)-c1ccccc1OC2
10,> 47.4,C=CCn1c(=O)c2ccccc2n2c(SCC(=O)O)nnc12
11,> 35.7,Cc1cc(C(=O)Nc2ccc(F)cc2F)on1
12,> 40.9,O=C(NC1CCCC1)C1CC(=O)N(c2ccccc2)C1 (centres undefined)
13,18.1,N#Cc1ccc(-c2nc3ccc(Br)cc3c(=O)n2O)cc1
14,> 41.7,O=C(O)Cn1nc(-c2ccccc2)cc1-c1ccccc1
15,3.1,CCOC(=O)c1cc(C)nc(Sc2ccc(C)cc2)c1C#N
16,43.1,COc1ccc(C(=O)CN2C(=O)COc3ccccc32)cc1
17,> 55.4,O=C(O)c1cccc(S(=O)(=O)Nc2ccc(Oc3ccccc3)cc2)c1
18,< 0.2,Cc1ccc(NC(=O)Nc2cccc(C)n2)c(C)c1
19,23.4,COc1ccccc1OCCCC(=O)Nc1nccs1

row,solubility kinetic [µg/mL],SMILES
1,> 47.2,Cc1ccc(NC(=O)CN(C)C(=O)Cc2ccccc2F)cc1
2,> 45.4,O=C(CSc1ccccn1)Nc1ccc2c(c1)OCCO2
3,4.2,CC(NC(=O)c1cc2cc(Cl)ccc2oc1=N)c1ccccc1 (centres undefined)
4,> 46.4,Cc1ccc(C(=O)NCN2CCN(c3ccccc3)CC2)cc1
5,41.7,CC1CN(CCc2ccccc2)c2nc3c(c(=O)n(C)c(=O)n3C)n2C1 (centres undefined)
6,> 49.6,O=C(CCCN1C(=O)C2CC=CCC2C1=O)Nc1ccccc1F (centres undefined)
7,47.7,Cc1[nH]c2ccccc2c1CCNC(=O)CCC(=O)c1ccccc1
8,8.4,Cc1nc2ccc(NC(=O)c3cccs3)cc2s1
9,53.4,CCCC(=O)C1=C(O)C(C(=O)OC)C(C)(C)CC1=NCCc1ccccc1 (centres undefined)
10,0.5,N#Cc1c(-c2ccncc2)cc(-c2ccc(F)cc2)nc1N
11,4.2,O=C(CCc1c[nH]c2ccccc12)NCCc1ccc(Cl)cc1
12,> 44.2,CCc1ccccc1N(C(C)=O)c1nc(CCl)cs1
13,< 0.3,CCCCCCCn1c(=O)c(C(=O)OC)c(N)c2ccccc21
14,> 59.2,Cc1ccccc1-c1nnc(SCC(=O)N(C)C2CCS(=O)(=O)C2)n1C (centres undefined)
15,36.3,Cc1ccc(CNCCCSc2ncccn2)cc1
16,18.3,Cc1cc(C(=O)Nc2ccc(F)c(Cl)c2)on1
17,15,O=C(NCc1ccc2c(c1)OCO2)c1c(Cl)cccc1Cl
18,< 0.4,CCOC(=O)c1cnc(-c2ccccc2)nc1Oc1ccc(OC)cc1
19,21.2,C=CCn1c(NC(=O)c2ccco2)nc2ccccc21

row,solubility kinetic [µg/mL],SMILES
1,> 51.2,COC(=O)c1cc(NC(=O)c2cccnc2)ccc1N1CCOCC1
2,7.1,O=C(Cc1cccc2ccccc12)NCCc1ccccc1
3,< 0.3,Cc1cccc(C(=O)O/N=C(\N)c2ccc(Cl)cc2)c1
4,6.7,O=C(Nc1ccccc1C(F)(F)F)c1ccccn1
5,0.5,COc1ccc(CCNC(=O)C(=O)c2c(C)[nH]c3ccccc23)cc1
6,> 45.4,CCC(C(=O)NC1CC(C)(C)NC(C)(C)C1)c1ccccc1 (centres undefined)
7,> 41.6,CN(Cc1ccccc1)C1CCNCC1.Cl
8,> 51.4,Cc1ccc(OCCSc2nc3ccccc3n2CC(=O)O)cc1
9,> 41.3,CC1(C)CC(=O)C=C(Nc2ccc(C(=O)O)c(O)c2)C1
10,1,CCc1nc(C)cc2c1sc1ccccc12.Cl
11,44.7,CNC(=O)c1ccccc1NC(=O)C1CC(=O)N(C(C)C)C1 (centres undefined)
12,> 42.8,CC(=O)c1ccc(NC(=S)NCc2cccnc2)cc1
13,< 0.3,Cc1cccc(-c2noc(-c3ccc4c(c3)OCO4)n2)c1
14,> 47.6,CC(C)CNC(=O)C1CCCN(C(=O)NCc2ccccc2)C1 (centres undefined)
15,> 34.7,Cc1cccc(Nc2cc(=O)n(C)c(=O)[nH]2)c1
16,2.1,CC(C)(C)c1csc(NC(=O)CCc2ccccc2)n1
17,10.6,CN1C(=O)S/C(=C/c2ccc(OCc3cccc(C(=O)O)c3)cc2)C1=O
18,1.5,Cc1ccc(NC(=O)c2ccc3nsnc3c2)c(C)c1
19,> 51.7,CCOC(=O)Cn1cc(C(=O)C(=O)N2CCOCC2)c2ccccc21

# The remaining lines, values behind:
row,SMILES,solubility kinetic [µg/mL]
1,CCOc1cc(N2CCOCC2)c(OCC)cc1NC(=O)COC(=O)c1ccc([N+](=O)[O-])o1,> 69.5
2,CC(Oc1ccc(-c2nnco2)cc1)C(=O)N1CCOCC1 (centres undefined),> 45.5
3,CN(C)c1ccc(NC(=O)CCN2C(=O)c3cccc([N+](=O)[O-])c3C2=O)cc1,42.4
4,O=C(c1cc(-c2cccc(Cl)c2)on1)N1CCCC1,7.5
5,O=C(O)C1CCN(C(=O)CSc2nnc3ccccn23)CC1,> 48.1
6,COC(=O)CS(=O)(=O)c1cc([N+](=O)[O-])ccc1NC(=O)OC,38.7
7,CC(C)(C)c1ccc(OCc2cnc(Cl)s2)cc1,< 0.6
8,CCC(C)NC(=O)C1CCN(S(=O)(=O)N2CCOCC2)CC1 (centres undefined),> 50
9,Cc1cc(OCCCCN2C(=O)NC(C)(C)C2=O)ccc1[N+](=O)[O-],> 50.3
10,CC(=O)c1sc2nsc(SCCN3CCOCC3)c2c1N,> 51.5
11,CCOC(=O)CN1N=C(c2ccc(C)cc2)CCC1=O,> 41.1
12,COc1ccc(CCNS(=O)(=O)c2cccc([N+](=O)[O-])c2)cc1,42.8
13,Cc1cc(C(=O)COc2ccc(C#N)cc2)c(C)n1CC1CCCO1 (centres undefined),16.7
14,COc1ccc(NC(=O)NC2CCCCCCC2)cc1,2.5
15,O=c1ccnc(SCCc2ccc([N+](=O)[O-])cc2)[nH]1,21.6
16,CC(=O)N1CCN(C(=O)c2ccc(C(=O)c3ccccc3)cc2)CC1,> 50.5
17,Cc1cc(N2CC(C)OC(C)C2)nc(C(C)C)n1 (centres undefined),21.9
18,COc1cc2c(cc1OC)CN(C(=S)Nc1ccc(Cl)cc1)CC2,< 0.4
19,CC(N)C12CC3CC(CC(C3)C1)C2.Cl (centres undefined),> 32.4
20,COc1cc(C(=O)OCC(=O)NC2CCCC2)cc(OC)c1OC,> 50.6
21,CCc1ccc(N2C(=O)C3C4C=CC(CC4)C3C2=O)cc1 (centres undefined),14.3

row,SMILES,solubility kinetic [µg/mL]
1,O=C(O)CN1C(=O)NC2(CCCc3ccccc32)C1=O (centres undefined),> 41.1
2,O=C(O)c1cccc(S(=O)(=O)Nc2ccc([N+](=O)[O-])cc2O)c1,45.3
3,CC(C)c1ccc(N(CC(=O)N2CCN(Cc3ccccc3)CC2)S(C)(=O)=O)cc1,40.5
4,COC(=O)c1sccc1NC(=O)C1CCCCC1C(=O)O (centres undefined),42.1
5,CCCCOc1ccc(C(=O)Nc2ccc(CN3CCOCC3)cc2)cc1,1.1
6,CCOc1ccccc1N(CC(=O)N1CCCC1)S(C)(=O)=O,> 49
7,N#CCCN(Cc1cccs1)C(=O)Nc1ccc(F)cc1,> 45.5
8,Cc1nnc(Cn2cnc3c2c(=O)n(C)c(=O)n3C)o1,> 41.4
9,O=c1c2[nH]c3ccc(F)cc3c2ncn1CC1CCCO1 (centres undefined),3.9
10,Cc1ccc2c3c([nH]c2c1)C(=O)CC(C)(C)S3,< 0.5
11,Cc1cccc(C(=O)NCC(=O)N2CCCC2)c1,> 36.9
12,CC(=O)c1c(C)[nH]c(C(=O)OCc2cc(-c3ccco3)on2)c1C,2.5
13,O=C1CCc2cc(S(=O)(=O)NC3CCCCC3)ccc2N1,> 46.3
14,COC(=O)c1sccc1NC(=O)Nc1ccc(C)c(C)c1,20.7
15,COc1ccc(CC(=O)NCc2ccc(F)cc2)cc1S(=O)(=O)N1CCOCC1,> 63.4
16,CCCN(Cc1cc2cc(OC)ccc2[nH]c1=O)C(=O)c1ccco1,45.2
17,COCCCNC(=O)[C@H]1N2C(=O)c3ccccc3C2SC1(C)C (some centres undefined),45.4
18,CN(C)C=NC(=O)c1cc(C(=O)c2ccc(F)cc2)c[nH]1,> 43.1
19,Cc1[nH]c2ccc(C(=O)NC3CCC(C)CC3)cc2c1C (centres undefined),0.9
20,O=c1c(N2CCOCC2)c(N2CCOCC2)c1=O,> 37.8
21,Cc1cc(C)c(S(=O)(=O)NC2CC3CCC2C3)c(C)c1 (centres undefined),< 0.6

row,SMILES,solubility kinetic [µg/mL]
1,O=C(O)CCSc1nnc(SCC(=O)NC2CCS(=O)(=O)C2)s1 (centres undefined),> 59.6
2,COCCNC(=S)N1CCN(S(=O)(=O)c2ccc(Cl)s2)CC1,11.4
3,Cc1ccc(S(=O)(=O)NCCC(=O)NC2CCCCC2)cc1,> 48.7
4,CCOC(=O)C1C(c2ccccc2O)NC(=O)NC1(O)C(F)(F)F (centres undefined),> 52.2
5,CC(C)n1c(Oc2ccc(F)cc2)nc2c1c(=O)n(C)c(=O)n2C,8.1
6,CC1C(=O)N2CCCc3cc(S(=O)(=O)N(C)CCC#N)cc1c32 (centres undefined),> 50
7,CCOc1ccc(/C=C/C(=O)N2CCOCC2)cc1OC,> 43.7
8,CC(=O)c1ccc(N2C(=O)C3C4C=CC(CC4)C3C2=O)cc1 (centres undefined),> 44.3
9,CC(=O)c1cccc(OCC(O)CNCC2CCCCC2)c1 (centres undefined),> 45.8
10,COc1ccccc1CN1CCCC(CNC(=O)c2cccc3ccccc23)C1 (centres undefined),49.5
11,O=[N+]([O-])c1ccc2c(c1)nc1n2CCSC1,> 35.3
12,O=C(O)CC(CC(=O)N1CCOCC1)c1ccccc1 (centres undefined),> 41.6
13,CCCc1c(O)nc(SCC(=O)NCc2ccco2)[nH]c1=O,> 48.5
14,COc1ccc(C(=O)NC2CCN(C(=O)Nc3ccc(F)cc3)CC2)cc1,0.9
15,CCc1ccc(NS(=O)(=O)c2ccc3[nH]c(=O)[nH]c3c2)cc1,5.5
16,COc1cccc(C(=O)OCC(=O)NCCC2=CCCCC2)c1,25.8
17,Cc1cc(OCCN2CCOCC2)ccc1C(C)C.Cl,34.2
18,CCCC(C)C(=O)Nc1ccc(S(=O)(=O)N2CCCC2)cc1 (centres undefined),> 48.7
19,COC(=O)c1ccc2nc(-c3ccc(S(C)(=O)=O)cc3)cn2c1,2
20,Cc1ccc(S(=O)(=O)N(C)CC(=O)NNC(=O)CCNS(=O)(=O)c2cccc(C)c2)cc1,> 72.4
